These results are taken from US11834414B2, “1-methyl-4-[(4-phenylphenyl)sulfonylmethyl]cyclohexyanol and 1-methyl-4-[[4-(2-pyridyl)phenyl]sulfonylmethyl]cyclohexanol compounds and their therapeutic use” (Modern Biosciences Limited, priority 2018, dated 2023).

One data set deals with CYP2C9 (Homo sapiens (Human), UniProt P11712). The data set is described as follows: Human Cytochrome P450 Inhibition Assay (Bactosomes). The format is in vitro ADME. Conditions: recombinant Bactosomes, 10 minutes, 37° C.
The target of the next data set is CYP3A4 (Homo sapiens (Human), UniProt P08684). The data set is described as above. It counts as in vitro ADME. The note with it: recombinant Bactosomes, 10 minutes, 37° C.
For data set [1], the target named is T1, CYP1A2 (Homo sapiens (Human), UniProt P05177). The note with it: recombinant enzyme.
In the next data set the target is CYP2D6 (Homo sapiens (Human), UniProt P10635). The data set is described as follows: Human Cytochrome P450 Inhibition Assay (Bactosomes). It counts as in vitro ADME. Conditions: recombinant Bactosomes, 10 minutes, 37° C.
The target in another data set is CYP2C19 (Homo sapiens (Human), UniProt P33261). The description is as above. The note with it: recombinant Bactosomes, 10 minutes, 37° C. The format is in vitro ADME.
Data set [2] has as its target T1, CYP1A2. Described as above.
The test system of data set [3] is Thp1 human monocytic cells. In words: Thp1 Monocyte ATP Production Assay. The format is cell-based. Conditions: Thp1 cells, 24 hour incubation, ATPLite; 9-point range 10 μM to 10 nM, mean of 2 independent experiments. The method, then: In vitro potency of test compounds was determined by incubation with Thp1 human monocytic cells and subsequent determination of Adenosine TriPhosphate (ATP) levels using firefly luciferase.
ATP is present in all metabolically active cells. When cells lose integrity, their ability to synthesise ATP is rapidly lost. […] See, e.g., Kang et al., 2015; Jiang et al., 2013. Levels of ATP can be monitored using a system based on firefly (Photinus pyralis) luciferase (see, e.g., Auld et al., 2009) using commercially available kits. A system known as
ATPlite™ was using to measure effects of the test compounds on cellular viability in vitro. This one-step assay system is an adenosine triphosphate (ATP) monitoring system based on the production of light caused by the reaction of ATP from the cells with added luciferase and D-luciferin, as illustrated in the reaction scheme below:
The emitted light is proportional to the ATP concentration.
Thp1 cells were plated at 112500 cells per well in 125 μL RPMI-1640 (no glucose) with 1% FBS in 96-well plates. Test compounds were prepared as 100 mM solutions in DMSO. These stock solutions were diluted in DMSO and then diluted 1000× in culture medium (RPMI) before being added directly to the wells so as to give the desired final compound concentration. After a 24 hour incubation at 37° C./5% CO2, ATPLite™ (Perkin Elmer) was added to each well (1:10 v/v, 10 μL). The plate was then incubated at room temperature for 5 minutes and the emitted light was quantified on Viewlux with a measurement time of 0.3 seconds and binning 4×4.
The average results for each test compound were expressed as a percent (%) of the average control value reflecting cell viability. The average values across the concentrations tested were then plotted and the IC50 for was calculated by fitting the data to a 4-parameter IC50 equation using software from Graf it (Erithacus Software). Each experiment was repeated twice and the data are presented as the mean IC50 from both experiments.

Another data set deals with human hepatocytes. In words: Human hepatocyte stability. It counts as in vitro ADME. The note with it: human hepatocytes, 1 μM, 60 minute incubation. The method, then:
(§1) Metabolic stability of test compounds was measured by determination of the rate of disappearance of the compound when incubated in the presence of rat or human hepatocytes, a primary source of the most important enzymes (cytochrome P450s) involved in drug metabolism. Study of drug stability in the presence of primary hepatocytes is accepted as a valuable model permitting rapid prediction of in vivo drug stability.
(§2) Rat or human hepatocytes were obtained from a commercial source and viability was assessed using a trypan blue solution prior to use. Test compounds (final concentration 1 μM, 0.1% DMSO, 0.9% acetonitrile) or a marker (diclofenac or diltiazem, final assay concentration 1 μM, 0.1% DMSO, 0.9% acetonitrile) were incubated with pooled hepatocytes for a 60 minute period and samples removed at up to 6 time points and analysed by LC-MS/MS for the presence/amount of test compounds.
(§3) Each compound was incubated for 0, 5, 15, 30, 45, or 60 minutes. The reactions were stopped by the addition of methanol containing an internal standard (1 μM Tolbutamide) at the appropriate time points, mixed and placed at −20° C. for ≥1 hour to quench and allow protein to precipitate. All samples were centrifuged (2500×g, 20 minutes, 4° C.). The aliquots were analysed using LC-MS/MS. Reactions were performed in duplicate at 37° C.
(§4) Data were processed, and the results plotted as In(concentration) vs. time. The elimination rate constant (slope of the regression line, k) was calculated using the following formula, where C(t) is the concentration at time t and C(0) is the starting concentration:
(§5) The half-life (t1/2) was calculated using the following formula: […]
(§6) The intrinsic clearance (CIint) was calculated using the following formula, where [cell] is the hepatocyte concentration in the assay: […]

For data set [4], the system named is collagen-induced arthritis in DBA/1j mice. In words: Mouse Collagen-Induced Arthritis. It counts as in vivo. Conditions: 10 mg/kg/day, once daily for 14 days, arthritic index vs control. On the procedure:
Seven- to eight-week-old male DBA/1j mice were used for all procedures. Animals were housed in groups of 10, and were maintained at 21° C.±2° C. on a 12-hour light/dark cycle with food and water ad libitum. Complete Freund's adjuvant (CFA) was prepared by emulsifying bovine type II collagen at 4 mg/mL with a 4 mg/mL suspension of Mycobacterium tuberculosis H37Ra in Incomplete Freund's Adjuvant (IFA) (0.85 mL paraffin oil and 0.15 mL mannide monooleate) in a 1:1 (v/v) ratio. All mice were immunised subcutaneously with 200 μg of bovine type II collagen in CFA. 21 days later, all mice were immunised subcutaneously with 100 μg of bovine type II collagen in IFA. The mice started to develop signs and symptoms of arthritis following the ‘booster’ immunisation.
For macroscopic assessment of arthritis, the following signs were monitored in each paw of each mouse three times per week and summed to generate the Arthritic Index (AI) (the maximum AI for one animal is 16): • 0=no visible effects of arthritis. • 1=oedema and/or erythema of 1 digit. • 2=oedema and/or erythema of 2 digits. • 3=oedema and/or erythema of more than 2 digits. • 4=severe arthritis of entire paw and digits.
Animals were sorted into treatment groups with a mean arthritic index of 2.5 and then dosed once daily for 14 days with compound: by oral gavage for test compounds, or by subcutaneous injection at a dose of 10 mg/kg for the positive control, etanercept. After completion of the experiment, the mice were sacrificed.
The data were analysed by generating an average of the arthritic index across each treatment group. The mean arthritic index was then compared to the arthritic index of control (untreated) animals using the following formula to generate a percentage inhibition of disease.

For the next data set, the system named is rat hepatocytes. The data set is described as follows: Rat hepatocyte stability. The note with it: 1 μM, 60 minute incubation. It counts as in vitro ADME. On the procedure:
as §1, §2, §3, §4, §5, §6

Where two headings read alike, the source gives them in different places.

CYP3A4, sequence (P08684 whole entry): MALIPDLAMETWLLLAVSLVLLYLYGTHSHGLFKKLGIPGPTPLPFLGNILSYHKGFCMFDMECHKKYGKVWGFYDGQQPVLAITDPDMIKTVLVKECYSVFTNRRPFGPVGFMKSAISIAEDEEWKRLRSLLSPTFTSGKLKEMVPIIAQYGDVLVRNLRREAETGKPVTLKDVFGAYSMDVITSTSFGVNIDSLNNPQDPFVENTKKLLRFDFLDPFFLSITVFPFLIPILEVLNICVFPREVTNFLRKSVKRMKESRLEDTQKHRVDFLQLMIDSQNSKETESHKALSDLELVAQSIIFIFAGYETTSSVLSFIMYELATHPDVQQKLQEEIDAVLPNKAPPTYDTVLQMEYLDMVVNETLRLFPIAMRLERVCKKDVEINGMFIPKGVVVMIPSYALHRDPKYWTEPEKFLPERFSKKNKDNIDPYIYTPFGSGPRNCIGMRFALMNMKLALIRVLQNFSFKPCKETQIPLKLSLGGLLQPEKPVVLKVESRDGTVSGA
CYP2D6, sequence (P10635 whole entry): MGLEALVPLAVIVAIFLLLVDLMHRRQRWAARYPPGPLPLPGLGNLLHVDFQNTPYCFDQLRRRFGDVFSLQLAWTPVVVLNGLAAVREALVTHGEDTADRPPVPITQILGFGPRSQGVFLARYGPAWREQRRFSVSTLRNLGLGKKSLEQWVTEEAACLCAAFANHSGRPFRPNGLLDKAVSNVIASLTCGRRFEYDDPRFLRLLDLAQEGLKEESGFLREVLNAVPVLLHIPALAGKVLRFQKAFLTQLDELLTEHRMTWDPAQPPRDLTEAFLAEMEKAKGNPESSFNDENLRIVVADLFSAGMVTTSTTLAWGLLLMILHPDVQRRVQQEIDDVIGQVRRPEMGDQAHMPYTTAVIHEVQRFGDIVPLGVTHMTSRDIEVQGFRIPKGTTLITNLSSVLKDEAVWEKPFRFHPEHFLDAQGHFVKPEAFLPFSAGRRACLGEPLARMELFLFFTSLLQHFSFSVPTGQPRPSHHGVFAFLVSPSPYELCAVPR
CYP2C19, sequence (P33261 whole entry): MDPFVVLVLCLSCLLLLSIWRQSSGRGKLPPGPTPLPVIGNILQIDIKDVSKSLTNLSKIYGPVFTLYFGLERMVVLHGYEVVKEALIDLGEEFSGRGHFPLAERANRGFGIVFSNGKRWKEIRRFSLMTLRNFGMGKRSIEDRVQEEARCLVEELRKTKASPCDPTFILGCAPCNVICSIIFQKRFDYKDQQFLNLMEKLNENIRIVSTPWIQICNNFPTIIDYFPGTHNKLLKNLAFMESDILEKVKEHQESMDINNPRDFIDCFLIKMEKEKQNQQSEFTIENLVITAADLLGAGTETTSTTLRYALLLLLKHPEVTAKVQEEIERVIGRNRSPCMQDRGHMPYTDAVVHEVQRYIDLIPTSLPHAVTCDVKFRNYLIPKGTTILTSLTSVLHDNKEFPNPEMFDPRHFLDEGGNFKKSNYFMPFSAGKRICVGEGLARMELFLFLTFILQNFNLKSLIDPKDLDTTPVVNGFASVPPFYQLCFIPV
CYP2C9, sequence (P11712 whole entry): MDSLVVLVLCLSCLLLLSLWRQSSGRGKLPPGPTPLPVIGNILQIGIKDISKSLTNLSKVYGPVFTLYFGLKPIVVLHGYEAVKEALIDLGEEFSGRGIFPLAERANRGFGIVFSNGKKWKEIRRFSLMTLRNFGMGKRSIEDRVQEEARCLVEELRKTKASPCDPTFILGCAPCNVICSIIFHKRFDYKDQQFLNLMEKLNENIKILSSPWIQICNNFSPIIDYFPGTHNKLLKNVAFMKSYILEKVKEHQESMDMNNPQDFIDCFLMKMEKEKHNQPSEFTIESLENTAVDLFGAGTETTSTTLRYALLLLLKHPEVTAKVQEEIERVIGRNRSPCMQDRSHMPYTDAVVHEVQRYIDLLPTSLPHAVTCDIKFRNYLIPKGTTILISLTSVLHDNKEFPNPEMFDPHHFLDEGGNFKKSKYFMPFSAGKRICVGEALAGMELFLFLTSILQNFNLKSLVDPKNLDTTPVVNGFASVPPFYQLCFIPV
T1 sequence (P05177 whole entry): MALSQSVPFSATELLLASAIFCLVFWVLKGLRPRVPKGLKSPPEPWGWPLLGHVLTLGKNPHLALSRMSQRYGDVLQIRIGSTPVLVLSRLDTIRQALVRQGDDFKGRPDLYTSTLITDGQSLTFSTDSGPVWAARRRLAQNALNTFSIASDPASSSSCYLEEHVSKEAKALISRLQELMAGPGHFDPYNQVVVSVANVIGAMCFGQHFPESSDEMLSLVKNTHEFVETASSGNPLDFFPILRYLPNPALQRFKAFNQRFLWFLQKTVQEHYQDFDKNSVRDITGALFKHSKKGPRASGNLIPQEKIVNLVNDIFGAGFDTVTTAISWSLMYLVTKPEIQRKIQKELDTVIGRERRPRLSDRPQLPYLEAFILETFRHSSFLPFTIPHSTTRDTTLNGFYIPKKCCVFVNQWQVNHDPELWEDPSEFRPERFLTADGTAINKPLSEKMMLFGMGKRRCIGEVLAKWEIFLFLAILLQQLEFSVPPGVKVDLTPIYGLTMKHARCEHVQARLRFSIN

As for `CC1(O)CCC(NS(=O)(=O)c2ccc(-c3ncc(Cl)cc3C#N)cc2)CC1` (centres unmarked) [HMC-N-05-A, reference compound], the IC50 at CYP2C9 is 27 µM; on CYP3A4, above 50 µM; on CYP1A2 [1] it was 36 µM; on CYP2D6, above 50 µM; on CYP2C19, above 50 µM.
Take `CC1(O)CCC(NS(=O)(=O)c2ccc(-c3cc(F)c(F)cc3F)cc2)CC1` (centres unmarked) [HMC-C-10-B, reference compound]: the half-inhibitory concentration (IC50) at CYP2C9 was 2.4 µM; on CYP3A4 it was 9.2 µM; on CYP1A2 [1], above 16 µM; at CYP2D6 it was above 16 µM; at CYP2C19 it was 8.5 µM.
As for `CC1(O)CCC(NS(=O)(=O)c2ccc(-c3ccc(C#N)cc3Cl)cc2)CC1` (centres unmarked) [HMC-C-09-A, reference compound], the half-maximal inhibitory concentration (IC50) on CYP2C9 was 34 µM; at CYP3A4, 33 µM; on CYP1A2 [1] it was 23 µM; on CYP2D6, above 50 µM; at CYP2C19, above 50 µM.
Turning to `C[C@]1(O)CC[C@@H](NS(=O)(=O)c2ccc(-c3ccc(F)cc3F)cc2)CC1` [ABD899, reference compound], the IC50 on CYP1A2 [2] was above 25 µM; in data set [3], 0.2 µM; at CYP2C9, 3.9 µM; on CYP3A4, 21.6 µM; on CYP2D6, 45.3 µM; on CYP2C19, 7.3 µM. For the same compound, the “Human Clint (uL/min/million cells)” value with human hepatocytes is 9 uL/min/million cells. Also, the “Human t1/2” value in the data set on human hepatocytes was found to be 2.48 h. Also, the “% inhibition of disease” value in [4] stood at 77%. The “Rat Clint (μL/min/million cells)” value in the data set with rat hepatocytes was determined as 57 μL/min/million cells. Further, the “Rat t1/2” value with rat hepatocytes worked out at 0.4 h.

The IC50 is the point on the concentration scale where inhibition reaches its midpoint.
